Drawing on a melting point compilation (Tetko et al.; mined from patent text by program, amines drawn as free bases though some values may be those of a salt), this text covers melting point for 63 compounds.

A value given as a limit tells only on which side of the number the result lay.

As for `Cc1cc(-c2ccc(Cl)cc2)nc(-c2ccnc(-c3ccc(S(N)(=O)=O)s3)c2)n1`, the melting point is 232 °C.
Compound `Cc1ccc(-c2cc([Si](C)(C)C)oc2-c2ccc(Cl)cc2)cc1` yielded a melting point of 80 to 84 °C.
With `CCN(CC)CCCNC(=S)N(CCS(=O)(=O)c1ccccc1)C(C)C` the figure was 120 to 121 °C; with `COC(=O)C=C1C=C(C(C)(C)C)C(=O)C(C(C)(C)C)=C1`, 87 to 89 °C; with `COc1ccc2c(c1)C(=NOCCN1CCCC1)c1c-2c(N2CCNCC2)nc2ccccc12`, 126 to 128 °C.
`Oc1ccc(-c2c3ccccc3c(C(F)(F)F)c3sc4ccccc4c23)cc1`: the melting point lay in the range of 210 to 211 °C.
For `CN(C)CCNC(=O)[C@H]1C[C@H](NC(=O)Nc2ccccc2)c2c(Cl)cc(Cl)cc2N1` (relative stereo), the melting point was in the range of 223 to 224 °C.
`CCCCNc1c(C(=O)OCC)cnc2[nH]ncc12` registered a melting point of 181 °C.
With `Cc1ccc(-c2ccc3c(c2)C=C(S(=O)(=O)Cl)CCO3)cc1`, the melting point lay in the range of 162 to 166 °C.
The value for `CC1CCC(C(C)C)C(OC(=O)N2CC3CC(C2)CN(C(=O)C2(O)NCCC2Oc2ccc(C#N)cc2)C3)C1` (single isomer, unassigned; (-)) was 111 to 112 °C; that for `COCCSc1[nH]nc(-c2ccc(Cl)cc2)c1-c1ccncc1` was 189 to 190 °C; that for `CS(=O)(=O)c1ccc(-c2ccccc2-c2ccc(C(F)(F)F)cc2)cc1` was 173 to 174 °C.
`O=C(O)c1cccc2c1C(=O)c1ccccc1S2(=O)=O` registered a melting point of 269 to 271 °C.
`COCCC1(C(=O)N[C@@H](Cc2ccc(NC(=O)c3c(Cl)cccc3Cl)cc2)C(=O)OC)CCCC1` registered a melting point of 85 to 87 °C.
With `CS(=O)(=O)NC(=O)Nc1ccc(Cl)cc1` the figure was 225 to 235 °C.
In turn, `Cc1nc(N2CCC(NCCC(F)(F)F)C2=O)sc1C(=O)NCc1ccc(F)cc1` (stereo not drawn) registered a melting point of 142 to 143 °C.
With `COc1ccc(-c2cc(=O)n(C)c(OC(C)C)n2)cc1OC` the figure was 124 to 126 °C; with `O=C(O)Cc1ccc(-n2sc3ccccc3c2=O)cc1`, 173 to 175 °C.
Consider `CN1C(=O)Cc2cscc2S1(=O)=O`, for which the melting point lay in the range of 148 to 149 °C.
The compound `COc1ccccc1OCC1SCCN1C(=O)CS` (stereo not drawn) came in with a melting point of 86 to 87 °C.
The compound `COc1ccc(NC(=O)c2ccccc2Cl)cc1` had a melting point of 113 to 115 °C.
On to `COC(=O)c1cc(C=O)ccc1C`, for which the melting point lay in the range of 60 to 61 °C.
In the case of `CCC(CC)c1ccc(Cl)c2nc3n(c12)CCCCN3c1ncc([N+](=O)[O-])cc1C`, the melting point lay in the range of 204 to 205 °C.
Take `Cc1cc(C#N)nc(Cl)n1`: the melting point came out at 57 °C.
With `O=C(NN1CCCCC1)c1nn(-c2ccc(Cl)cc2Cl)c2c1CCc1sc(Br)cc1-2` the figure was 145 °C; with `O=C(O)c1cc2cc(OCc3ccccc3)ccc2cc1OCc1ccccc1`, 163 to 165 °C; with `Cc1c[nH]c2c([N+](=O)[O-])ccc(C)c2c1=O`, 250 to 262 °C.
For the compound `COc1cc(Cn2c(=O)n(C3CCCCC3)c3cc(Cl)ccc32)ccc1[N+](=O)[O-]`, the melting point is 176 °C.
Regarding `O=C(O)/C=C/C#Cc1cccc(S(=O)(=O)Nc2ccccc2)c1`, the melting point was 188 to 190 °C.
On to `CCCCN(Cc1ccc(-c2ccccc2-c2nnn[nH]2)cc1)c1nnn(CC(C)C)c1C(=O)O`, for which the melting point fell in the range of 105 to 106 °C.
`c1ccc(Oc2ccc(C3(Cn4cncn4)OCCO3)cc2)cc1` came in with a melting point of 100 to 102 °C.
As for `O=C(O)Cc1c(-c2ccccc2)n[nH]c1-c1ccccc1`, the melting point was in the range of 210 to 211 °C.
For `C=C(C(=O)c1ccc(C(=O)O)cc1)c1cc(-c2cccs2)ccc1OC`, the melting point was above 250 °C.
As for `COC(=O)/C=C(/OC)c1cccc2ccc(Br)cc12`, the melting point is 96 to 97 °C.
`COc1cccc(OC)c1Cc1c(O)ncnc1O` showed a melting point above 245 °C.
The value for `COc1cccc(CCSc2c(O)cc(-c3ccccc3)oc2=O)c1` was 112 to 113 °C; that for `CSc1ccc(-c2c(Cl)ncn2-c2ccc(S(C)(=O)=O)cc2)cc1` was 216 to 220 °C.
With `c1ccc(-c2nn3c(c2-c2nc4ccccc4[nH]2)CCC3)nc1` the figure was 172 to 175 °C; with `COc1ccc2c(c1)c(C1CCN(Cc3cccc(C(=O)O)c3)CC1)cn2CCc1ccsc1`, 217 to 218 °C; with `COc1ccc(CCc2ccc(NC(=O)c3ccc(C)cc3O)cc2)cc1OC`, 162 to 164 °C.
Compound `COc1ccc(C(C)=O)c2c1CCN2C(C)=O` showed a melting point of 88 to 89 °C.
In the case of `COc1cc2nc(N3CCN(C(=O)C4CCCC4)CC3)nc(N)c2cc1OC`, the melting point lay in the range of 256 to 259 °C.
In turn, `Cc1nc(-c2ccc(C(F)(F)F)cc2)sc1COc1ccc(/C=C/C(=O)O)cc1` gave a melting point of 226 to 228 °C.
`Cc1ccc(OC2CCC3C4CC=C5CC(O[Si](C)(C)C(C)(C)C)CCC5(C)C4CCC23C)cc1` (stereo not drawn) displayed a melting point of 137 to 138 °C.
For `CCCCCCc1ccc(-c2ccc(-c3ncc(C(=O)OCC)c(O)n3)cc2)cc1`, the melting point fell in the range of 91.6 to 91.9 °C.
For the compound `CCn1cc(C(=O)O)c(=O)c2cc(F)c(N3CCNC(c4ccn(S(=O)(=O)c5ccccc5)c4)C3)cc21` (stereo not drawn), the melting point came out at 120 °C.
In the case of `CCOC(=O)c1ccc2nc3cscc3c(=O)n2c1`, the melting point amounted to 175 °C.
Consider `CCOC(=O)COc1cccc(C2C(C(=O)OCC)=C(C)NC(C)=C2C(=O)OCC)c1`, for which the melting point was determined as 108 °C.
Consider `Cc1cc2cc(/C(=C\CO)c3ccc(I)cc3)ccc2o1`, for which the melting point is 103 to 113 °C.
`N#Cc1ccc(N2C(=O)[C@H]3C(O)C(O)CN3C2=O)c2ccccc12` (stereo partly drawn) had a melting point of 225 °C.
The compound `NP(N)(=O)NC(=O)c1cccs1` gave a melting point of 272 to 280 °C.
In the case of `CCOC(=O)c1ccc(COCc2csc3nc(C(=O)NCc4ccccc4)[nH]c(=O)c23)cc1`, the melting point was found to be 229 °C.
`O=C(O)[C@@H](CCN1C(=O)c2ccccc2C1=O)Oc1c(Br)cc(-c2c3ccccc3cc3sc4ccccc4c23)cc1Br` had a melting point of 222 to 223 °C.
With `O=C1Cc2cccc(C(=O)c3ccccc3F)c2N1` the figure was 209 to 210 °C.
For the compound `NC(=O)c1ccnc(-c2ccc(Oc3ccc(Cl)cc3F)cc2)n1`, the melting point fell in the range of 198 to 200 °C.
With `Cc1cc(Oc2ccc([N+](=O)[O-])c(C(F)(F)F)c2)n[nH]1` the figure was 96 to 98 °C; with `CCC(=O)N1CCC(NC(=O)Nc2ccccc2Cl)CC1`, 150 to 157 °C.
Consider `CC(C)=NOCc1nc2c(N)nc3cccnc3c2n1CCCNC(=O)C(C)C`, for which the melting point was in the range of 195 to 197 °C.
For `C(=Cc1cnc2[nH]c3ccccc3c2c1)c1ccccc1`, the melting point is above 220 °C.
The value for `CCc1ccc(C(=O)Nc2ccccc2)cc1[N+](=O)[O-]` was 111 to 113 °C; that for `O=C(NCc1ccccc1)Nc1nnc(C(=O)OCc2ccccc2)s1` was 188 to 192 °C; that for `CC(=O)OC1(C(N)=O)CCCc2cc(C)cnc21` (stereo not drawn) was 205 °C.
In turn, `CCOC(=O)C1=C(COCCn2c(C)nc3ccccc32)NC(C)=C(C(=O)NC(C)(C)C)C1c1ccccc1Cl` (stereo not drawn) registered a melting point of 157 to 161 °C.
